For assay [1], the system named is NADPH-oxidase activation (H2O2 release) in PMNs. The experiment in a line: Respiratory burst (H2O2 assay) in PMNs. The assay is classed as cell-based, human. Conditions: for inhibition at 0.0005 µM / inhibition at 0.001 µM / inhibition at 25 µM / inhibition at 50 µM / inhibition at 100 µM: Homo sapiens, read-out: Inhibition of H2O2 release induced by PMA in PMNs (% PMA control); for inhibition at 25 µM: [cpd] 25 μM; for inhibition at 50 µM: [cpd] 50 μM; for inhibition at 100 µM: [cpd] 100 μM. The method, then:
(§1) NADPH-oxidase activation was measured as induction of H2O2 release (derived from dismutation of O2^−) triggered in PMNs and monocytes by PMA (200 ng/ml). Briefly, PMNs and monocytes were pretreated at 37° C. for 30-60 min with test compound at different concentrations, and stimulated with phorbol 12-myristate 13-acetate (PMA, 200 ng/ml) dissolved in 0.5 ml of a standard reaction mixture. Release of H2O2 was evaluated in real time at time points of 5 min by using a microplate fluorescence reader (Perkin-Elmer). Results are expressed as nmoles of H2O2 released over time by 10^6 cells. Shown are dose-response curves of inhibitory effect on H2O2 release over 60 min.

The next assay concerns V-ATPase. Conditions: cited from earlier work; for inhibition of V-ATPase (in words): literature.
The subject of assay [2] is NADPH-oxidase activation (H2O2 release) in Monocytes. As to the kind of experiment: Respiratory burst (H2O2 assay) in monocytes. In kind it is cell-based, human. Conditions: for inhibition at 0.0005 µM / inhibition at 0.001 µM / inhibition at 0.4 µM / inhibition at 1 µM / inhibition at 25 µM / inhibition at 50 µM / inhibition at 100 µM: Homo sapiens, Monocyte; for inhibition at 0.4 µM: [cpd] 0.4 μM; for inhibition at 1 µM: [cpd] 1.0 μM; for respiratory burst / NADPH-oxidase activation induced by PMA in monocytes (in words): PMA 200 ng/ml; for inhibition at 25 µM: [cpd] 25 μM; for inhibition at 50 µM: [cpd] 50 μM; for inhibition at 100 µM: [cpd] 100 μM. The method, then:
as §1

The subject of another assay is rat ovariectomized model. The following applies: cited from earlier work.
Setting [3] is: 0.5 h, 30 min, read-out: Inhibition of H2O2 release induced by PMA in Monocytes (% PMA control).
[4] abbreviates: 40 min, 40 min, read-out: Inhibition of H2O2 release induced by PMA in Monocytes (% PMA control).
Setting [5] is: 50 min, 50 min, read-out: Inhibition of H2O2 release induced by PMA in Monocytes (% PMA control).

Read-outs that look alike come from different tables or passages of the source.

By inhibition is commonly meant the share of the control response that was lost under treatment.

Consider `CO/C1=C\C(C)=C\[C@@H](C)[C@@H](O)[C@@H](C)C/C(C)=C/C=C/[C@H](OC)[C@@H]([C@@H](C)[C@@H](O)[C@H](C)[C@@]2(O)C[C@@H](O)[C@H](C)[C@@H](C(C)C)O2)OC1=O` [Bafilomycin A1], for which the inhibition at 0.0005 µM in assay [1] (0.5 h, [cpd] 0.0005 μM, 30 min) is 7.1%; in assay [1] (40 min, [cpd] 0.0005 μM, 40 min), 9.8%; in assay [1] (50 min, [cpd] 0.0005 μM, 50 min), 9.3%; in assay [2] (0.5 h, [cpd] 0.0005 μM, 30 min, read-out: Inhibition of H2O2 release induced by PMA in Monocytes (% PMA control)) it was 22.1%; in assay [2] (40 min, [cpd] 0.0005 μM, 40 min, read-out: Inhibition of H2O2 release induced by PMA in Monocytes (% PMA control)), 28.2%; in assay [2] (50 min, [cpd] 0.0005 μM, 50 min, read-out: Inhibition of H2O2 release induced by PMA in Monocytes (% PMA control)) it was 32.4%. Moreover, the inhibition at 0.001 µM in assay [1] (0.5 h, [cpd] 0.001 μM, 30 min) is 26.4%; in assay [1] (40 min, [cpd] 0.001 μM, 40 min) it was 27.2%; in assay [1] (50 min, [cpd] 0.001 μM, 50 min), 29.9%; in assay [2] (0.5 h, [cpd] 0.001 μM, 30 min, read-out: Inhibition of H2O2 release induced by PMA in Monocytes (% PMA control)), 30.8%; in assay [2] (40 min, [cpd] 0.001 μM, 40 min, read-out: Inhibition of H2O2 release induced by PMA in Monocytes (% PMA control)) it was 37.2%; in assay [2] (50 min, [cpd] 0.001 μM, 50 min, read-out: Inhibition of H2O2 release induced by PMA in Monocytes (% PMA control)) it was 47.9%. Moreover, the inhibition at 0.001 µM in assay [2] (1 nM concentration, read-out: inhibition of the respiratory burst in monocytes) was 48%. The “inhibition of V-ATPase (in words)” value in the assay on V-ATPase was “very potent and highly specific inhibitors”.
Turning to `C/C=C/[C@H]1O[C@@](O)([C@@H](C)[C@H](O)[C@H](C)[C@H]2OC(=O)/C(OC)=C/C(C)=C/[C@@H](C)[C@@H](O)[C@@H](CC)[C@@H](O)[C@H](C)C/C(C)=C/C=C/[C@@H]2OC)C[C@@H](O[C@H]2C[C@@H](O)[C@H](OC(N)=O)[C@@H](C)O2)[C@@H]1C` [Concanamycin A1, Concanamycin A], in assay [1] (10 nM concentration), the “inhibition of the release of oxygen radicals in PMNs” value turned out to be 58%. In addition, the “Inhibition of H2O2 release induced by PMA in PMNs (% PMA control)” value in assay [1] ([cpd] 0.0005 μM, 30 min) was 33.4%; in assay [1] ([cpd] 0.0005 μM, 40 min) it was 35.2%; in assay [1] ([cpd] 0.0005 μM, 50 min), 38.9%; in assay [1] ([cpd] 0.001 μM, 30 min), 36.2%; in assay [1] ([cpd] 0.001 μM, 40 min), 45.0%; in assay [1] ([cpd] 0.001 μM, 50 min), 56.4%. The “Inhibition of H2O2 release induced by PMA in PMNs (% PMA control)” value in assay [1] ([cpd] 0.010 μM, 30 min) is on record as 50.2%; in assay [1] ([cpd] 0.010 μM, 40 min), 58.3%; in assay [1] ([cpd] 0.010 μM, 50 min), 58.3%. Moreover, the “inhibition of V-ATPase (in words)” value in the assay with V-ATPase was “very potent and highly specific inhibitors”. Moreover, in assay [2] (10 nM concentration), the “inhibition of the release of oxygen radicals in monocytes” value turned out to be 50%. Also, the “Inhibition of H2O2 release induced by PMA in Monocytes (% PMA control)” value is listed as 17.0% in assay [2] ([cpd] 0.0005 μM, 30 min); 26.3% in assay [2] ([cpd] 0.0005 μM, 40 min); 33.3% in assay [2] ([cpd] 0.0005 μM, 50 min); 35.7% in assay [2] ([cpd] 0.001 μM, 30 min); 43.4% in assay [2] ([cpd] 0.001 μM, 40 min); 50.2% in assay [2] ([cpd] 0.001 μM, 50 min).
For the molecule `O=C(Nc1cccc2c1nc(C(F)(F)F)n2CC(=O)N1CCOCC1)c1c(Cl)cccc1Cl` [FR-177995], in the assay with V-ATPase, the “concentrations generally active in inhibiting V-ATPase” value is 0.4 to 1 µM. Besides, the anti-osteoporotic activity result with rat ovariectomized model is recorded as “high anti-osteoporotic activity”. Besides, the results for the inhibition at 0.4 µM in assay [2] (setting [3]), in assay [2] (setting [4]) and in assay [2] (setting [5]) were 27.1%, 29% and 26.7%, respectively. Further, the inhibition at 1 µM in assay [2] (setting [3]) worked out at 21.3%; in assay [2] (setting [4]), 6.3%; in assay [2] (setting [5]), 5.5%. Besides, the “respiratory burst / NADPH-oxidase activation induced by PMA in monocytes (in words)” value in assay [2] is on record as “had effect”.
Take `CCN1C(=O)C=CC1=O` [NEM, N-ethylmaleimide]: the inhibition at 25 µM in assay [1] (0.5 h, 30 min) was 100%; in assay [1] (40 min, 40 min), 100%; in assay [1] (50 min, 50 min), 100%; in assay [2] (setting [3]), 100%; in assay [2] (setting [4]) it was 100%; in assay [2] (setting [5]) it was 100%. Moreover, the inhibition at 50 µM in assay [1] (0.5 h, 30 min) came out at 100%; in assay [1] (40 min, 40 min), 100%; in assay [1] (50 min, 50 min) it was 100%; in assay [2] (setting [3]), 100%; in assay [2] (setting [4]), 100%; in assay [2] (setting [5]), 100%. The inhibition at 100 µM in assay [1] (0.5 h, 30 min) amounted to 100%; in assay [1] (40 min, 40 min), 100%; in assay [1] (50 min, 50 min), 100%; in assay [2] (setting [3]), 100%; in assay [2] (setting [4]) it was 100%; in assay [2] (setting [5]) it was 100%. Further, the “respiratory burst / NADPH-oxidase activation induced by PMA in PMNs (in words)” value in assay [1] (PMA 200 ng/ml) is on record as “completely blocked”. The “concentrations generally active in inhibiting V-ATPase” value in the assay with V-ATPase was more than 25 µM. The “respiratory burst / NADPH-oxidase activation induced by PMA in monocytes (in words)” value in assay [2] was “completely blocked”.

The values above are taken from patent US20080317857A1, “V-Atpase Inhibitors of Use in the Treatment of Septic Shock” (Brane Discovery S.r.l., priority 2005, published 2008).
